Assay results taken from PMC9165844 (PLoS ONE, 2022).
“Also recorded” adds a separate entry of the source.

Tests used:
astrocytes = test: Cytotoxic effect by MTT assay on astrocytes; conditions: for Astrocytes viability: control for cytotoxicity effect; for Cytotoxicity in astrocyte cultures: MTT, 12.5-200 μM
Aβ1–42 = molecular target: T1, Aβ1–42 (Homo sapiens, UniProt P05067); test: Inhibition of Aβ1–42 aggregation by Thioflavin T (ThT) assay; assay type: biochemical; conditions: compound at 100 μM, 48 h, 37°C, ThT fluorescence; read-out: Percentage of inhibition of Aβ1–42 fibrillation
T1 construct: Aβ of 42 aa residues (Aβ1–42) represents the most amyloidogenic and toxic form; purchased Calbiochem PP69

AChE = AChE (Electrophorus electricus, UniProt O42275); test: biochemical; conditions: for Ki: read-out: AChE inhibition constant (Ki)
[1] = Solubility in solvents noted for the synthesized compounds; assay type: physicochemical; conditions: qualitative
BACE 1 = BACE 1 (Homo sapiens, UniProt P56817); test: Inhibition of BACE 1 activity (FRET kit); conditions: for BACE1 inhibitory activity (in words): FRET
PC12 = test: Cytotoxic effect by MTT assay on PC12 cells; conditions: 12.5-200 μM
NIH3T3 fibroblasts = test: Cytotoxic effect by MTT assay on NIH3T3 fibroblasts; conditions: 12.5-200 μM

Chain of BACE 1 (P56817 46-501): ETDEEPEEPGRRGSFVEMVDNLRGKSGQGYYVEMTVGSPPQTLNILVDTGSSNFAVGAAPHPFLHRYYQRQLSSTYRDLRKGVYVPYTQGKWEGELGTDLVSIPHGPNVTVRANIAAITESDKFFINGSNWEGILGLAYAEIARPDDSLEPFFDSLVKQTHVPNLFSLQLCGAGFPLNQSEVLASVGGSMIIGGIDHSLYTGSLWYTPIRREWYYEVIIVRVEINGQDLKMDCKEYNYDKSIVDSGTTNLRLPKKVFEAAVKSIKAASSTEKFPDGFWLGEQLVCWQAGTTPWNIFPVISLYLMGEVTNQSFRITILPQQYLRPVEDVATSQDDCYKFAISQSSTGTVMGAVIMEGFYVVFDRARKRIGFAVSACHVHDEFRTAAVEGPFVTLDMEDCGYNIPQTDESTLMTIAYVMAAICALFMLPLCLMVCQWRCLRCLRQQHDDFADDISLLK
T1 sequence (P05067 672-713): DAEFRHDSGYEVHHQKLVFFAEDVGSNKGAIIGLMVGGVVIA
Chain of AChE (O42275 24-633 limits assumed): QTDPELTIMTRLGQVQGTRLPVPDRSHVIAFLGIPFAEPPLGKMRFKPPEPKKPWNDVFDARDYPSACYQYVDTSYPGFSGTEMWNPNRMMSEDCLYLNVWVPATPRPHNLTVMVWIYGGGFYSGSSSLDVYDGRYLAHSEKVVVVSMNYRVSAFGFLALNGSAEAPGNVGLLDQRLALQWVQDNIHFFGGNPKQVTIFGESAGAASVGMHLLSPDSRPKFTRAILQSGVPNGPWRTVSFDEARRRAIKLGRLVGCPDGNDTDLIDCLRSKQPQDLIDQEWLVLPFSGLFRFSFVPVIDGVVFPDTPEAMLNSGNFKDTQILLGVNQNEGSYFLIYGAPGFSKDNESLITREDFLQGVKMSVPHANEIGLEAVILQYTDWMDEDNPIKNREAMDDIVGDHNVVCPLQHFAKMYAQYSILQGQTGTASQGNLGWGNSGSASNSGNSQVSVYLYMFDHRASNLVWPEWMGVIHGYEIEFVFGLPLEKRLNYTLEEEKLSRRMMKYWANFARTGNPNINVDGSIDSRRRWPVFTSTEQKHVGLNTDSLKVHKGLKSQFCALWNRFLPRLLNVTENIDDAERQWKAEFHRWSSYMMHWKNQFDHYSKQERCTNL

SMILES | Astrocytes viability (astrocytes; at 100 μM) [%] | Astrocytes viability (astrocytes; at concentrations 1 μM ≤) | inhibition at 100 µM (Aβ1–42) [%] | AChE inhibitory activity (in words) (AChE) | Ki (AChE) [µM] | Solubility (solvents) [1] | IC50 (BACE 1) [µM] | BACE1 inhibitory activity (in words) (BACE 1) | Cytotoxicity in astrocyte cultures (astrocytes) | Cytotoxicity in PC12 cell cultures (PC12) | Cytotoxicity in fibroblast cultures (NIH3T3 fibroblasts)
[Cl][Cd][Cl] [Cadmium chloride, reference compound] | 25 | above 80% |  |  |  |  |  |  |  |  | 
COc1ccc(CN)cc1OCCN1CCCCC1 [Compound F2S4-m, (4-methoxy-3-(2-(piperidin-1-yl)ethoxy)phenyl) methanamine] |  |  | 60.9 | showed inhibitory activity | 0.4 | MetOH, EtOH, Acetone, CHCl3, EtOAc, H2O | 16 | showed inhibitory activity | not cytotoxic | not cytotoxic | not cytotoxic
COc1cc(CN)ccc1OCCN1CCCCC1 [Compound F2S4-p, (3-methoxy-4-(2-(piperidin-1-yl)ethoxy)phenyl) methanamine] |  |  | 42.1 | no significant effect; also recorded: did not show inhibitory activity; also recorded: did not show inhibition | > 100 | MetOH, EtOH, water |  | not possible to determine its IC50 value; also recorded: did not show inhibitory activity; also recorded: did not show inhibition |  |  | showed cytotoxic
COc1ccc(CN)cc1OCCN1CCCC1 [Compound F3S4-m, (4-methoxy-3-(2-(pyrrolidin-1-yl)ethoxy)phenyl) methanamine] |  |  | 30.5 | showed inhibitory activity | 0.19 | MetOH, EtOH, Acetone | 8.38 | showed inhibitory activity | not cytotoxic | not cytotoxic | not cytotoxic
